Test results: patent US10836759B2, “Thiazole derivatives useful as mutant IDH1 inhibitors for treating cancer” (THE UNITED STATES OF AMERICA, AS REPRESENTED BY THE …, priority 2016, dated 2020)

Legend:
IDH1 R132H = IDH1 R132H (Homo sapiens, UniProt O75874, R132H); test: Enzymatic inhibition assay, mutant IDH1 R132H (NADPH depletion coupled to diaphorase/resazurin); type: biochemical; settings: IDH1 R132H enzyme, IC50 class
Description: (§1) Assays were conducted in a 1536-well black solid-bottom plate with a final assay volume of 9 μL.
Specifically, for IDH1 R132H, 3 μL of enzyme (4 mM β-ME, 0.0005 mg/mL IDH1 R132H, 150 mM NaCl, 20 mM Tris pH 7.5, 10 mM MgCl2, 0.05% BSA) were added to the plate, followed by the addition of 23 nL of test compound in DMSO. The plate was lidded and incubated at room temperature for 30 minutes at which time 3 μL of substrate were added (0.016 mM NADPH, 2 mM α-KG, 150 mM NaCl, 20 mM Tris pH 7.5, 10 mM MgCl2, 0.05% BSA). This reaction was incubated at room-temperature for 60 minutes at which time the detection mix was added (0.06 mg/mL diaphorase, 0.036 mM resazurin, 150 mM NaCl, 20 mM Tris pH 7.5, 10 mM MgCl2, 0.05% BSA). […]

IDH1 R132C = IDH1 R132C (Homo sapiens, UniProt O75874, R132C); test: Enzymatic inhibition assay, mutant IDH1 R132C (NADPH depletion coupled to diaphorase/resazurin); type: biochemical; settings: IDH1 R132C enzyme, IC50 class
Chain of IDH1 R132C (O75874 whole entry R132C): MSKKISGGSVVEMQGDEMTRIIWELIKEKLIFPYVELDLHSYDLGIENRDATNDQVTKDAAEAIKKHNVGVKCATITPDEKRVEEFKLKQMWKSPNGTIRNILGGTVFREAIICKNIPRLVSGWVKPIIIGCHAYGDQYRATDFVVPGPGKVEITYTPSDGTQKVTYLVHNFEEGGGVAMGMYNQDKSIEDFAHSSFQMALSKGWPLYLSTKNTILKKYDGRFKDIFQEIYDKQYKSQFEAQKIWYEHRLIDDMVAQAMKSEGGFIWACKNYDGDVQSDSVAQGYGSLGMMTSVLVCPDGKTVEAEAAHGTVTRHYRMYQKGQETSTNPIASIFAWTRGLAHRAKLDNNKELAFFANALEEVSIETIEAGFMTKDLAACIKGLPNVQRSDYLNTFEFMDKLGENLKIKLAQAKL
Description: as §1
For IDH1 R132C, 3 μL of enzyme (0.00032 mg/mL IDH1 R132H, 10% glycerol, 50 mM potassium phosphate pH 6.5, 5 mM MgCl2, 0.03% BSA) were added to the plate, followed by the addition of 23 nL of test compound in DMSO. The plate was lidded and incubated at room temperature for 30 minutes at which time 3 μL of substrate were added (0.012 mM NADPH, 0.6 mM α-KG, 10% glycerol, 50 mM potassium phosphate pH 6.5, 5 mM MgCl2, 0.03% BSA). […]

Chain of IDH1 R132H (O75874 whole entry R132H): as the sequence (O75874 whole entry R132C) above, with C132H counted along it

Structure (SMILES)	IC50 (IDH1 R132H)	IC50 (IDH1 R132C)
CCOc1ccc(Cl)cc1-n1c(C=C(C)C)c(C(=O)N2CCNC[C@@H]2C)cc(-c2nc(-c3ccc(C(F)(F)F)cc3)cs2)c1=O [Compound 128]	< 300 nM	300 to 1000 nM
CCOc1ccc(Cl)cc1-n1c(C=C(C)C)c(C(=O)N2CCNC[C@H]2C)cc(-c2nc(-c3ccc(C(F)(F)F)cc3)cs2)c1=O [Compound 129]	< 300 nM	< 300 nM
CCOc1ccc(Cl)c(-n2c(C=C(C)C)c(C(=O)N3C[C@H]4CC[C@@H](C3)N4)cc(-c3nc(-c4ccc(C(F)F)cc4)cs3)c2=O)c1 [Compound 130]	< 300 nM	< 300 nM
CCc1cccc(CC)c1-n1c(C=C(C)C)c(C(=O)N2CCNC[C@H]2C)cc(-c2nc(-c3ccc(C(F)F)cc3)cs2)c1=O [Compound 131]	< 300 nM	< 300 nM
CCc1cccc(CC)c1-n1c(C=C(C)C)c(C(=O)N2CCNC[C@@H]2C)cc(-c2nc(-c3ccc(C(F)F)cc3)cs2)c1=O [Compound 132]	< 300 nM	< 300 nM
CCOc1ccc(C#N)cc1-n1c(C=C(C)C)c(C(=O)N2CC3CCC(C2)N3)cc(-c2nc(-c3ccc(Cl)cc3)cs2)c1=O [Compound 135]	< 300 nM	< 300 nM
CCOc1ccc(Cl)c(-n2c(C=C(C)C)c(C(=O)N3CC4CCC(C3)N4)cc(-c3nc(-c4ccc(OC)nc4)cs3)c2=O)c1 [Compound 138]	< 300 nM	< 300 nM
CCOc1ccc(N(CC)CC)cc1-n1c(C=C(C)C)c(C(=O)N2C[C@H]3CC[C@@H](C2)N3)cc(-c2nc(-c3ccc(Cl)cc3)cs2)c1=O [Compound 146]	< 300 nM	300 to 1000 nM

Second part, the compound after the results:

IC50 (IDH1 R132H)	IC50 (IDH1 R132C)	Structure (SMILES)
< 300 nM	< 300 nM	CCc1ccc(Cl)cc1-n1c(C=C(C)C)c(C(=O)N2CC3CCC(C2)N3)cc(-c2nc(-c3ccc(Cl)cc3)cs2)c1=O [Compound 133]
< 300 nM	< 300 nM	CCc1ccc(N(C)C)cc1-n1c(C=C(C)C)c(C(=O)N2CC3CCC(C2)N3)cc(-c2nc(-c3ccc(Cl)cc3)cs2)c1=O [Compound 134]
< 300 nM	< 300 nM	CCOc1ccc(C#N)cc1-n1c(C=C(C)C)c(C(=O)N2CCNCC2)cc(-c2nc(-c3ccc(Cl)cc3)cs2)c1=O [Compound 136]
< 300 nM	< 300 nM	CCOc1ccc(Cl)c(-n2c(C=C(C)C)c(C(=O)N3CCNCC3)cc(-c3nc(-c4ccc(OC)nc4)cs3)c2=O)c1 [Compound 137]
< 300 nM	< 300 nM	CCOc1ccc(N(CC)CC)cc1-n1c(C=C(C)C)c(C(=O)N2CCNCC2)cc(-c2nc(-c3ccc(Cl)cc3)cs2)c1=O [Compound 145]
< 300 nM	< 300 nM	CC(C)=Cc1c(C(=O)N2CCNCC2)cc(-c2nc(-c3ccc(Cl)cc3)cs2)c(=O)n1-c1cc(N(C)C)ccc1Cl [Compound 147]
< 300 nM	< 300 nM	CNc1ccc(Cl)c(-n2c(C=C(C)C)c(C(=O)N3CCNCC3)cc(-c3nc(-c4ccc(Cl)cc4)cs3)c2=O)c1 [Compound 148]
< 300 nM	< 300 nM	CNc1ccc(Cl)c(-n2c(C=C(C)C)c(C(=O)N3C[C@H]4CC[C@@H](C3)N4)cc(-c3nc(-c4ccc(Cl)cc4)cs3)c2=O)c1 [Compound 149]
300 to 1000 nM	< 300 nM	CC(C)=Cc1c(C(=O)N2C[C@H]3CC[C@@H](C2)N3)cc(-c2nc(-c3ccc(Cl)cc3)cs2)c(=O)n1-c1cc(N(C)C)ccc1Cl [Compound 150]
